Source: patent US20260138959A1, “QUINAZOLINE DERIVATIVE COMPOUND AND USE THEREOF” (VORONOI INC., priority 2021, published 2026)
Where two headings read alike, the source gives them in different places.

Legend:
[1] = tested on: c-KIT V560G/D816V; assay: Proliferation inhibitory activity on Ba/F3 cell (CellTiter-Glo, 72 hours), c-KIT V560G/D816V; assay type: cell-based; details: read-out: Cell (nM) c-KIT V560G/D816V (GI50 class)
Protocol: (§1) Ba/F3-TEL-PDGFRα(WT), Ba/F3-TEL-PDGFβ(WT), Ba/F3-c-KIT(D816V) (Kyinno, #KC-0138), c-KIT V560G/D816V, c-KIT D814Y were seeded at 3×10^3/100 μl/well in a clear bottom white 96-well plate. A culture solution containing compounds of 12 concentrations (0.00001-2 mM) serially diluted in 3 folds and the DMSO control group was added at 0.5 μl/well each to a final concentration of 0.00005-10 μM, and then incubated in a CO2 incubator at 37° C. for 72 hours. After 72 hours, the plate treated with the compound was taken out, CellTiter-Glo® Assay (Promega) solution was treated with 100 μl/well, followed by mixing well. After mixing well for about 10 minutes at room temperature, […] was measured using a microplate reader. The data were presented as percentages in proportion to treated cells based on the vehicle, GI50 (nM) values were calculated using GraphPad Prism 8.3.0 (GraphPad software Inc., San Diego).
(§2) The inhibitory activities of Ba/F3 expressing PDGFR-α, PDGFR-β, c-KIT(D816V), c-KIT V560G/D816V, and c-KIT D814Y measured as described above were measured and shown in Table 7 below (A: GI50≤200 nM; B: 200 nM<GI50≤500 nM; C: GI50>500 nM).

[2] = tested on: Ba/F3-c-KIT(D816V); assay: Proliferation inhibitory activity on Ba/F3 cell (CellTiter-Glo, 72 hours), c-KIT(D816V); assay type: cell-based
Protocol: as §1, §2

[3] = Mus musculus, BaF3, c-KIT V560G/D816V cells
[4] = Mus musculus, BaF3, read-out: Ba/F3 (nM) c-KIT (D816V) (GI50 class)

Row | Compound | GI50 [1, 3] | GI50 [2, 4] | GI50 ([1]; c-KIT V560G/D816V cells) | GI50 ([2]; read-out: Ba/F3 (nM) c-KIT (D816V) (GI50 class))
1 | COc1cc2ncnc(-c3ccc(NC(=O)Cc4ccc(C(F)(F)F)cc4)cc3)c2cc1OCCCN1C[C@H]2C[C@@H]1CN2C [Example 159, N-(4-(7-methoxy-6-(3-((1R,4R)-5-methyl-2,5-diazabicyclo[2.2.1]heptane-2-yl)propoxy)quinazolin-4-yl)phenyl)-2-(4-(trifluoromethyl)phenyl)acetamide] | 200 to 500 nM | ≤ 200 nM |  | 
2 | COc1cc2c(-c3ccc(NC(=O)Cc4ccc(C(F)(F)F)cc4)cc3)ncnc2cc1OC[C@@H]1CCCNC1 [Example 73, (R)-N-(4-(6-methoxy-7-(piperidin-3-ylmethoxy)quinazolin-4-yl)phenyl)-2-(4-(trifluoromethyl)phenyl)acetamide] | ≤ 200 nM | ≤ 200 nM |  | 
3 | COc1cc2c(-c3ccc(NC(=O)Cc4ccc(C(F)(F)F)cc4)cc3)ncnc2cc1OCCCN1CCn2c(nnc2C(F)(F)F)C1 [Example 34, N-(4-(6-methoxy-7-(3-(3-(trifluoromethyl)-5,6-dihydro-[1,2,4]triazolo[4,3-a]pyrazin-7(8H)-yl)propoxy)quinazolin-4-yl)phenyl)-2-(4-(trifluoromethyl)phenyl)acetamide] | ≤ 200 nM | ≤ 200 nM |  | 
4 | COc1cc2ncnc(-c3ccc(NC(=O)Cc4ccc(C(F)(F)F)cc4)cc3)c2cc1OCCCN1CCN(C2CC2)CC1 [Example 127, N-(4-(6-(3-(4-cyclopropylpiperazin-1-yl)propoxy)-7-methoxyquinazolin-4-yl)phenyl)-2-(4-(trifluoromethyl)phenyl)acetamide] | 200 to 500 nM | ≤ 200 nM |  | 
5 | CCN1CCC(Oc2cc3c(-c4ccc(NC(=O)Cc5ccc(C(F)(F)F)cc5)cc4)ncnc3cc2OC)CC1 [Example 123, N-(4-(6-((1-ethylpiperidin-4-yl)oxy)-7-methoxyquinazolin-4-yl)phenyl)-2-(4-(trifluoromethyl)phenyl)acetamide] | ≤ 200 nM | ≤ 200 nM |  | 
6 | CCN1CC[C@H](COc2cc3ncnc(-c4ccc(NC(=O)Cc5ccc(C(F)(F)F)cc5)cc4)c3cc2OC)C1 [Example 41, (S)-N-(4-(7-((1-ethylpyrrolidin-3-yl)methoxy)-6-methoxyquinazolin-4-yl)phenyl)-2-(4-(trifluoromethyl)phenyl)acetamide] | ≤ 200 nM | ≤ 200 nM |  | 
7 | COc1cc2c(-c3ccc(NC(=O)Cc4ccc(C(F)(F)F)cc4)cc3)ncnc2cc1OCCCN1CCN2CCCC2C1 (centres unmarked) [Example 33, N-(4-(7-(3-(hexahydropyrrolo[1,2-a]pyrazin-2(1H)-yl)propoxy)-6-methoxyquinazolin-4-yl)phenyl)-2-(4-(trifluoromethyl)phenyl)acetamide] | ≤ 200 nM | ≤ 200 nM |  | 
8 | CCN1CCC(COc2cc3ncnc(-c4ccc(NC(=O)Cc5ccc(C(F)(F)F)c(F)c5)cc4)c3cc2OC)CC1 [Example 80, N-(4-(7-((1-ethylpiperidin-4-yl)methoxy)-6-methoxyquinazolin-4-yl)phenyl)-2-(3-fluoro-4-(trifluoromethyl)phenyl)acetamide] | ≤ 200 nM | ≤ 200 nM |  | 
9 | COc1cc2c(-c3ccc(NC(=O)Cc4ccc(C(F)(F)F)cc4)cc3)ncnc2cc1OCCCN1CCC(C)CC1 [Example 44, N-(4-(6-methoxy-7-(3-(4-methylpiperidin-1-yl)propoxy)quinazolin-4-yl)phenyl)-2-(4-(trifluoromethyl)phenyl)acetamide] | ≤ 200 nM | ≤ 200 nM |  | 
10 | CCN1CCC(COc2cc3ncnc(-c4ccc(NC(=O)Cc5ccc(Cl)c(C(F)(F)F)c5)cc4)c3cc2OC)CC1 [Example 78, 2-(4-chloro-3-(trifluoromethyl)phenyl)-N-(4-(7-((1-ethylpiperidin-4-yl)methoxy)-6-methoxyquinazolin-4-yl)phenyl)acetamide] | ≤ 200 nM | ≤ 200 nM |  | 
11 | COc1cc2c(-c3ccc(NC(=O)Cc4ccc(C(F)(F)F)cc4)cc3)ncnc2cc1OC[C@H]1CCN(C(=O)OC(C)(C)C)C1 [Example 36, tert-butyl (S)-3-(((6-methoxy-4-(4-(2-(4-(trifluoromethyl)phenyl)acetamido)phenyl)quinazolin-7-yl)oxy)methyl)pyrrolidin-1-carboxylate] | > 500 nM | ≤ 200 nM |  | 
12 | COc1cc2c(-c3ccc(NC(=O)Cc4ccc(C(F)(F)F)cc4)cc3)ncnc2cc1OCCCN1CCN(C)C(=O)C1 [Example 143, N-(4-(6-methoxy-7-(3-(4-methyl-3-oxopiperazin-1-yl)propoxy)quinazolin-4-yl)phenyl)-2-(4-(trifluoromethyl)phenyl)acetamide] | ≤ 200 nM | ≤ 200 nM |  | 
13 | COCCN1CC(Oc2cc3ncnc(-c4ccc(NC(=O)Cc5ccc(C(F)(F)F)cc5)cc4)c3cc2OC)C1 [Example 28, N-(4-(6-methoxy-7-((1-(2-methoxyethyl)azetidin-3-yl)oxy)quinazolin-4-yl)phenyl)-2-(4-(trifluoromethyl)phenyl)acetamide] | > 500 nM | ≤ 200 nM |  | 
14 | COc1cc2c(-c3ccc(NC(=O)Cc4ccc(C(F)(F)F)cc4)cc3)ncnc2cc1OCc1cccnc1 [Example 29, N-(4-(6-methoxy-7-(pyridin-3-ylmethoxy)quinazolin-4-yl)phenyl)-2-(4-(trifluoromethyl)phenyl)acetamide] | ≤ 200 nM | ≤ 200 nM |  | 
15 | COc1cc2c(-c3ccc(NC(=O)Cc4ccc(C(F)(F)F)cc4)cc3)ncnc2cc1OC[C@H]1CCNC1 [Example 39, (S)-N-(4-(6-methoxy-7-(pyrrolidin-3-ylmethoxy)quinazolin-4-yl)phenyl)-2-(4-(trifluoromethyl)phenyl)acetamide] | 200 to 500 nM | ≤ 200 nM |  | 
16 | COc1cc2ncnc(-c3ccc(NC(=O)Cc4ccc(C(F)(F)F)cc4)cc3)c2cc1OC1CCNC1 (centres unmarked) [Example 139, N-(4-(7-methoxy-6-(pyrrolidin-3-yloxy)quinazolin-4-yl)phenyl)-2-(4-(trifluoromethyl)phenyl)acetamide] | > 500 nM | ≤ 200 nM |  | 
17 | COc1cc2c(-c3ccc(NC(=O)Cc4ccc(C(F)(F)F)cc4)cc3)ncnc2cc1OCCCCl [Example 23, N-(4-(7-(3-chloropropoxy)-6-methoxyquinazolin-4-yl)phenyl)-2-(4-(trifluoromethyl)phenyl)acetamide] | 200 to 500 nM | ≤ 200 nM |  | 
18 | COc1cc2c(-c3ccc(NC(=O)CCc4ccccc4)cc3)ncnc2cc1OCC1CCNCC1 [Example 71, N-(4-(6-methoxy-7-(piperidin-4-ylmethoxy)quinazolin-4-yl)phenyl)-3-phenylpropanamide] | 200 to 500 nM | ≤ 200 nM |  | 
19 | COc1cc2c(-c3ccc(NC(=O)Cc4cccc(C(F)(F)F)c4)cc3)ncnc2cc1OCCCN1CCN(C)CC1 [Example 55, N-(4-(6-methoxy-7-(3-(4-methylpiperazin-1-yl)propoxy)quinazolin-4-yl)phenyl)-2-(3-(trifluoromethyl)phenyl)acetamide] | ≤ 200 nM | ≤ 200 nM |  | 
20 | COCCN1CCCC(COc2cc3ncnc(-c4ccc(NC(=O)Cc5ccc(C(F)(F)F)cc5)cc4)c3cc2OC)C1 (centres unmarked) [Example 42, N-(4-(6-methoxy-7-((1-(2-methoxyethyl)piperidin-3-yl)methoxy)quinazolin-4-yl)phenyl)-2-(4-(trifluoromethyl)phenyl)acetamide] | ≤ 200 nM | ≤ 200 nM |  | 
21 | COc1cc2c(-c3ccc(NC(=O)Cc4ccc(Cl)c(C(F)(F)F)c4)cc3)ncnc2cc1OCC1CCNCC1 [Example 77, 2-(4-chloro-3-(trifluoromethyl)phenyl)-N-(4-(6-methoxy-7-(piperidin-4-ylmethoxy)quinazolin-4-yl)phenyl)acetamide] | 200 to 500 nM | ≤ 200 nM |  | 
22 | N-(4-(7-methoxy-6-(pyridin-3-ylmethoxy)quinazolin-4-yl)phenyl)-2-(4-trifluoromethyl)phenyl)acetamide [Example 157] |  |  | > 500 nM | ≤ 200 nM
